Assay [1] has as its system patients with R/R myelofibrosis. Description: mRNA expression in cells isolated from treated patients with R/R myelofibrosis. The format is in vivo, human. As to conditions: 120 mg or 240 mg for 5 or 7 days, C1D1 pre-dose vs C1D5. The method, then:
Treatment of patients with the compound of Formula (I) induces p21, Bax and Puma expression in vivo in patients with R/R myelofibrosis or R/R AML. mRNA expression in cells isolated from patients was evaluated pre-dosing on day 1 and 24 hours after the first course of treatment with the compound of Formula (I) in patients with R/R myelofibrosis (FIG. 7(A)). The compound of Formula (I) is administered at 120 mg for 7 days for Cohort 1, 240 mg for 7 days for Cohort 2, 240 mg for 7 days for Cohort 3, and 240 mg for 5 days for Cohort 4. Samples taken at pre-dose on Cycle 1, Day 1 (C1D1) and Cycle 1, Day 5 (C1D5).

For assay [2], the system named is HEL-92 cells (TP53 mutant). Description: Bcl-2 family protein expression in HEL-92 cells, intracellular flow cytometry. It counts as cell-based. Conditions: 72 hours. As to the method:
(§1) The effect of the compound of Formula (I) on inducing apoptosis along with the expression of anti-apoptotic and pro-apoptotic protein expression in the MV-411 AML cell was assessed. […] Molecular Cancer Therapeutics. 2015 Mar. 1; 14(3):649-58. After 72 hours of culture with the compound of Formula (I), MV-411 (TP53 wt) and HEL-92 cells (TP53 mutant) were stained with antibodies against various Bcl-2 family proteins and data acquired using intracellular flow cytometry (FIG. 5(B)).

The test system of assay [3] is MV-411 AML cell line (TP53 wild-type). Description: Bcl-2 family protein expression in MV-411 AML cells, intracellular flow cytometry. It counts as cell-based. Conditions: MV-411 cells, 72 hours, above the concentration to induce cell stasis. As to the method: as §1
The next assay relates to patients with R/R AML. Put plainly: Gene expression in PBMC from treated patients with R/R AML. The format is in vivo, human. As to the method:
For patients with R/R AML, the compound of Formula (I) was administered at 120 mg (n=3), 180 mg (n=2), 240 mg (n=8), or 360 mg (n=4) daily for QD for seven days in dose-escalation phase, with different ‘off-treatment’ duration depending on cohort assignments. Samples taken at pre-dose on Cycle 1, Day 1 (C1D1) and Cycle 1, Day 5 (C1D5).
Treatment of patients with R/R AML with the compound of Formula (I) induces expression of genes involved in the Bcl-2 apoptotic pathway. […] FIG. 8 illustrates induced expression of Bcl-2 genes in PBMC following treatment of R/R AML patients with the compound of Formula (I). Eighteen genes were included in analysis: BAD, BAX, BCL2L1, MCL1, BCL2, BID, CAPN2, CASP10, CASP3, CASP7, CASP8, CASP9, TNFRSF10A, TNFRSF10B, TP53, PUMA, NOXA and STAT3. Experimental data was obtained similar to the method set forth in Example 4.

The test system of assay [4] is UKE-1 myelofibrosis cell line (TP53 wild-type). Put plainly: Pro-apoptotic protein expression in UKE-1 myelofibrosis cell line, intracellular flow cytometry. The format is cell-based. Conditions: UKE-1 cells, 2.5 pM, 24, 48 and 72 hours, time-dependent. As to the method: The compound of Formula (I) induces Bak, Bax and BIM expression in a myelofibrosis cell line. The UKE-1 myelofibrosis cell line (TP53 wild-type) was cultured for 24, 48 and 72 hours with 2.5 pM of compound (equivalent to levels observed in vivo following administration in patients) and stained with antibodies against various pro-apoptotic protein using intracellular flow cytometry techniques. […] The upper line is cells treated with the compound of Formula (I) while the lower line is a control (no treatment).

In the next assay the test system is CLL tumor cells. Put plainly: p53 and Bcl-2 family protein expression and apoptosis (cPARP+) in patient CLL tumor cells treated ex vivo, intracellular flow cytometry. It counts as cell-based, human. As to conditions: CLL tumor cells on HS-5 stromal cells, 24 hours. As to the method: The effect of the compound of Formula (I) on the expression of p53 along with anti-apoptotic and pro-apoptotic proteins was assessed in tumors cells isolated from patients diagnosed with CLL. Blood samples were collected prior to the patient receiving any treatment. CLL tumor cells were isolated and incubated on HS-5 stromal cells for 24 hours and then treated with the compound of Formula (I) for 24 hours. p53 and Bcl-2 family proteins were measured by intracellular flow cytometry and shown as median fluorescent intensity (MFI). The percent cPARP+ is shown above the level of basal spontaneous apoptosis. CLL tumor cells were cultured on HS-5 stromal cells were then treated with an increasing concentrations of the compound of Formula (I) for 24 hours. The result was an increase in intracellular P53 levels along with a decrease in anti-apoptotic Bcl-XL and Mcl-1 levels, and an increase in pro-apoptotic Bax.

The mark [5] stands for this setting: 120-360 mg QD for seven days, C1D1 pre-dose vs C1D5.

In the case of `CC(C)[C@@H](CS(=O)(=O)C(C)C)N1C(=O)[C@@](C)(CC(=O)O)C[C@H](c2cccc(Cl)c2)[C@H]1c1ccc(Cl)cc1` [Formula (I), 2-((3R,5R,6S)-5-(3-chlorophenyl)-6-(4-chlorophenyl)-1-((S)-1-(isopropylsulfonyl)-3-methylbutan-2-yl)-3-methyl-2-oxopiperidin-3-yl) acetic acid], in assay [1], the “expression of Bax (mRNA)” value is “increased expression” and the “expression of p21 (mRNA)” value was “increased expression”. In addition, the “changes in Bcl-2 family proteins” value in assay [2] was “no changes”. Further, in assay [3], the “anti-apoptotic Bcl-2 family proteins” value is “decrease”, the “pro-apoptotic effector protein Bak” value is “increase” and the “pro-apoptotic effector protein Bax” value was “increase”. Further, in the assay on patients with R/R AML (setting [5]), the “expression of Bax (gene expression)” value is “increased expression”, the “expression of Puma (gene expression)” value is reported as “increased expression” and the “expression of p21 (gene expression)” value is “increased expression”. In the assay with patients with R/R AML (cells isolated from peripheral blood (PBMC), eighteen genes), the “expression of genes involved in the BCL2 family/apoptosis pathway” value is listed as “induced the expression”. In assay [4], the “protein expression of BIM” value was “induced protein expression”, the “protein expression of Bak” value was “induced protein expression” and the “protein expression of Bax” value is on record as “induced protein expression”. Besides, in the assay on CLL tumor cells, the “expression of anti-apoptotic protein Bcl-2” value is “decreased expression” and the “expression of pro-apoptotic protein Bak” value is reported as “increased expression”. For the same molecule, the “cell apoptosis (percent cPARP+ above basal spontaneous apoptosis)” value in the assay on CLL tumor cells (increasing concentrations) is “increased cell apoptosis in a dose-dependent manner”. Moreover, in the assay with CLL tumor cells (increasing concentrations, MFI), the “anti-apoptotic Bcl-XL levels” value is reported as “decrease”, the “anti-apoptotic Mcl-1 levels” value is “decrease”, the “intracellular P53 levels” value is “increase” and the “pro-apoptotic Bax levels” value was “increase”.

The values above are taken from patent US20250134876A1, “METHODS OF TREATING A CANCER OVEREXPRESSING ONE OR MORE BCL-2 FAMILY PROTEINS” (Kartos Therapeutics, Inc., priority 2021, published 2025).
